The values that follow come from PMC5892710 (Nature chemical biology, 2017).

The test concerns the target T1, Etr1p (Candida tropicalis, UniProt Q8WZM3).
T1 sequence (Q8WZM3 23-386): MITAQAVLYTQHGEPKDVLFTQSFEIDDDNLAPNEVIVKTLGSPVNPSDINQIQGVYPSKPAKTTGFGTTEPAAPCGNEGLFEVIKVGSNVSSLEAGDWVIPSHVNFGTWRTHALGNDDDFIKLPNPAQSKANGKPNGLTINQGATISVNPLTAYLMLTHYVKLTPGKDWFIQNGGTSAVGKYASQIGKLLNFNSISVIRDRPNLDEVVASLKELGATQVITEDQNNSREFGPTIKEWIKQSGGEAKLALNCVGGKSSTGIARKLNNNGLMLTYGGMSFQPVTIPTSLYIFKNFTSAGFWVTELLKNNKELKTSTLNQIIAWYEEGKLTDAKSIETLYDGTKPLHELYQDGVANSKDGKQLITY
The experiment in a line: isothermal titration calorimetry. As to conditions: 150 mM NaCl, 20 mM Tris-HCl pH 7.9; association constant. In kind it is binding. Background: ITC needs no label: the signal is the heat of the interaction.

`NC(=O)C1=CN([C@@H]2O[C@H](COP(=O)(O)OP(=O)(O)OC[C@H]3O[C@@H](n4cnc5c(N)ncnc54)[C@H](OP(=O)(O)O)[C@@H]3O)[C@@H](O)[C@H]2O)C=CC1` [NADPH]: the binding constant was 3.8 ± 1.0 ·10^5.
